Measured values taken from patent US20220119375A1, “3-ARYLOXY-3-ARYL-PROPYLAMINE COMPOUND AND USES THEREOF” (Zhangzhou Pien Tze Huang Pharmaceutical Co., Ltd., priority 2018, published 2022).
Read-outs that look alike come from different tables or passages of the source.

Experiments:
[1] = target: T1, human TRPA1 channel (Homo sapiens, UniProt O75762); assay: manual patch clamp detection of TRPA1 inhibitory activity; format: cell-based; conditions: for IC50: HEK293 stably expressing human TRPA1, 100 μM AITC, +100 mV
T1 construct: expressed in transfected cells; host or cells: HEK293
Method: The HEK293 cell line stably expressing human TRPA1 channel was placed in T75 culture flask with DMEM medium containing 15 μg/mL Blasticidin S HCl, 200 μg/mL Hygromycin B and 10% FBS, and cultured in incubator at 37° C. and 5% CO2. When the cell density reached about 80%, the culture medium was removed, the residue was rinsed with phosphate buffered saline (PBS) without calcium and magnesium. 2 mL of trypsin was added to digest for 2 minutes, and 8 mL of culture medium was added to terminate the digestion. The cells were collected to 15 mL centrifuge tube and centrifuged at 800 rpm for 3 min. After the supernatant was removed, an appropriate volume of extracellular fluid was added to re-suspend the cells.
In manual patch clamp detection, HEKA system (Patch Master software) was used together with EPC-10 amplifier to record the whole cell current of TRPA1 stably transfected cell line at room temperature. intracellular fluid formulation for whole cell recording was as follows (mM): 140 CsCl, 10 HEPES, 5 EGTA, 0.1 CaCl2, 1 MgCl2 (pH 7.2, osmotic pressure 295-300 mOsm); Ca^2+-free extracellular fluid formulation for recording was as follows (mM): 140 NaCl, 5 KCl, 0.5 EGTA, 1 MgCl2, 10 Glucose, 10 HEPES (pH 7.4, osmotic pressure 300-310 mOsm). Glass microelectrode resistance used for patch clamp recording was 2-4 MΩ, the sampling frequency was 10 kHz, the filter frequency was 2.9 kHz, the cell clamp was 0 mV, and the voltage stimulation command (channel protocol) was a linear voltage from −100 mV to +100 mV for 300 ms, then restored to 0 mV clamping potential. The recording was performed every 2 s. The hTRPA1 current was induced by 100 μM AITC. To ensure the accuracy of current recording, the series resistance was used for 60% compensation during recording.
Data recording and current amplitude measurement export were completed by Patch Master software. Cells with sealing impedance lower than 500 MΩ, w were not included in the statistics. The original current data were corrected by software for leakage reduction, and the hTRPA1 current amplitude was measured at +100 mV. The compound dose-effect curve and IC50 were fitted and calculated by GraphPad Prism 5.02 (GraphPad Software, San Diego, Calif.).

[2] = tested on: ICR mice, acetic acid writhing pain model; assay: mice acetic acid writhing pain model; format: in vivo, mouse; conditions: for number of appearance of writhing reaction: within 30 min, saline group 49 times
Method: Male ICR mice, weighed 22-25 g, were fasted but allowed to drink water freely for 2 h before administration. All ICR mice were weighed and grouped randomly, and the number of animals in each group was >10. […] The test compound was IC-1 (the compound prepared in Example 9), and the administration dosages were 5 mg/kg and 10 mg/kg. […] When concave abdomen, stretched trunk and hind claw, and high buttocks appeared, one number point was recorded. […] After administration, the fewer visceral pains in the mice were, the stronger the analgesic effect of the compound was.

[3] = tested on: C57BL/6 mice, formalin pain model; assay: mice formalin pain model, dose response (Example 50); format: in vivo, mouse; conditions: for Licking time: Phase II, 10-60 min
Method: 100 male C57BL/6 mice (9-week aged), were randomly divided into 10 groups to evaluate analgesic activity of two compounds in the mice formalin pain model, and each group had 10 mice. […] Before the start of experiment, the mice were allowed to adapt experimental environment for 72 h with free feeding and drinking water. The test drug was administrated intraperitoneally, and the dosage was as follows:
After administration, the mice were placed in a transparent, ventilated plexiglass cylinder, and 1 h later, 20 μl of 4% formalin solution was injected into the left hind plantar of mice in each group by micro-injector, and claw pain response in mice was recorded in real time by a mini-camera. The time length of licking left claw was used as an indicator of pain response, licking time in 0-10 min (phase I) and 10-60 min (phase II) was observed and recorded, and the statistical analysis was conducted. The half effective dose (ED50) of three compounds was calculated: ED50 referred to the dose of the drug that decreased licking time by half as compared with the blank control group. The smaller the ED50 value was, the lower the effective analgesic dose of the compound was and the stronger the analgesic effect was.

[4] = Pharmacokinetic test in rat; format: in vivo; conditions: for bioavailability: oral, calculated on AUC(0-∞); for half-life: read-out: T½ (converted)
Method: A certain amount of sample was weighed and dissolved in deionized water to prepare 1 mg/mL of solution. Male SD rats were used as test animals. The dose of single intravenous (IV) injection was 2 mg/kg, and the dose of oral (PO) administration was 10 mg/kg. Each group had three rats. The rats in oral group were fasted for 10-14 hours before administration, and were fed 4 hours after administration. Animal blood collection time points were as follows: before administration, and 5 min, 15 min, 30 min, 1 h, 2 h, 4 h, 6 h, 8 h, and 24 h after administration for intravenous administration; before administration, and 15 min, 30 min, 1 h, 2 h, 4 h, 6 h, 8 h and 24 h after administration for oral administration. About 0.25 mL of blood was collected via the jugular vein from each animal, and heparin sodium was used for anticoagulation. After collecting the blood samples, the blood samples were placed on ice and centrifuged to separate the plasma (centrifugation conditions: 8000 rpm, 6 min, 4° C.). The collected plasma was stored at −80° C. before analysis. 50 μL of plasma sample was taken into 1.5 mL of centrifuge tube, 250 μL of internal standard solution was added, and the same volume of methanol rather than internal standard solution was added in the blank group. The mixture was vortexed and mixed, centrifuged at 14,000 rpm for 5 min, 200 μL of supernatant was taken into 96-well sample plate, and the LC-MS/MS was used for sample analysis. In the linear regression analysis, the peak area was taken as the y-axis and the drug concentration was taken as the x-axis. The linear relationship between the peak area ratio and the concentration was expressed by the correlation coefficient (R) obtained from the regression equation of the compound. According to the blood concentration data of the drug, the pharmacokinetic calculation software WinNonlin7.0 non-compartmental model was used to calculate the pharmacokinetic parameters of the test drug.
Internal standard working solution: a certain amount of tolbutamide internal standard stock solution with a concentration of 490,000 ng/mL was taken into a volumetric flask with a certain volume, diluted to a desired volume with methanol and mixed well to obtain the internal standard working solution with a concentration of 200 ng/mL.

T1 sequence (O75762 whole entry): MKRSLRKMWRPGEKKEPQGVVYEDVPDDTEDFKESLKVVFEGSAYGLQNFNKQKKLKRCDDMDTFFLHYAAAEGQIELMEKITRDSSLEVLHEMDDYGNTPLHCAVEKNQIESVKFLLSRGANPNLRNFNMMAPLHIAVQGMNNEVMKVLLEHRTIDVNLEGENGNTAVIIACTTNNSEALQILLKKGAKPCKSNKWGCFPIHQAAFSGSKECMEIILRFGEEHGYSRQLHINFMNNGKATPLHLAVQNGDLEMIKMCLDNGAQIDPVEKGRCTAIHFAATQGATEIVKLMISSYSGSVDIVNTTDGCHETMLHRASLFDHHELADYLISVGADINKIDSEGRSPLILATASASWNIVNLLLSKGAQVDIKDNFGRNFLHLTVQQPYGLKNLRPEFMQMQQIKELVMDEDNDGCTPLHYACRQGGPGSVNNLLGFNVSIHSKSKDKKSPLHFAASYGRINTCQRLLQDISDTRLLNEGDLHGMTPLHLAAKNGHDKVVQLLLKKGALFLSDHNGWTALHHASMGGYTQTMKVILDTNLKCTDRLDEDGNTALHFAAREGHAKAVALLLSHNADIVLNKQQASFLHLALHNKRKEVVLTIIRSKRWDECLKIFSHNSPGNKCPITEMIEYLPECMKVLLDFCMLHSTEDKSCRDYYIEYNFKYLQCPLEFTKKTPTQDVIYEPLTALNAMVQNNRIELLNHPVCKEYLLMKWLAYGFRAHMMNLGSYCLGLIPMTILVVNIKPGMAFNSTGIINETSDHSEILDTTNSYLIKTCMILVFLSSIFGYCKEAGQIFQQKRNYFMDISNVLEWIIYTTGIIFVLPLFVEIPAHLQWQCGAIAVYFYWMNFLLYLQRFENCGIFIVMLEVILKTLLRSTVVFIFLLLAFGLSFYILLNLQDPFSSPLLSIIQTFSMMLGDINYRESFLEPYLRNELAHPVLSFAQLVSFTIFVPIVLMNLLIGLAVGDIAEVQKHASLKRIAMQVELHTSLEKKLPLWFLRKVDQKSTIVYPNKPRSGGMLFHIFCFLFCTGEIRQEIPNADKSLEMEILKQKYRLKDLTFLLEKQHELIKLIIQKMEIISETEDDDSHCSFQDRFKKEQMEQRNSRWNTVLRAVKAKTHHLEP

For `CNCC[C@H](Oc1cccc2ccoc12)c1cccs1` [Compound IC-1, (S)-3-(benzofuran-7-yloxy)-N-methyl-3-(thiophen-2-yl)propyl-1-amine], the IC50 [1] was 0.43 µM, the “ratio of IC50 of S configuration of duloxetine to IC50 of the compound, manual patch clamp” value ([1]; manual patch clamp) was 10.14 and the “writhing number lower than in the saline control group” value ([2]; 5 mg/kg by gavage) was 50%. The “number of appearance of writhing reaction” value ([2]; 5 mg/kg by gavage) was 20 times, the “number of appearance of writhing reaction” value ([2]; 10 mg/kg by gavage) was 17 times and the half effective dose ([2]; acetic acid writhing, gavage) was “less than 5 mg/kg”. For the same molecule, the “decrease of licking time as compared with blank Vehicle” value ([3]; 1 mg/kg, phase II (10-60 min)) was “more than 50%”, the bioavailability ([4]; male, SD, plasma, 10 mg/kg) was 179% and the AUC(0-inf) ([4]; male, SD, plasma, IV 2 mg/kg) was 449 ng·h/mL. For the same molecule, the Cmax ([4]; male, SD, plasma, IV 2 mg/kg) was 170 ng/mL, the Tmax ([4]; male, SD, plasma, IV 2 mg/kg, read-out: Tmax) was 0.083 h and the half-life ([4]; male, SD, plasma, IV 2 mg/kg) was 2.97 h. The AUC(0-inf) ([4]; male, SD, plasma, PO 10 mg/kg) was 4020 ng·h/mL, the Cmax ([4]; male, SD, plasma, PO 10 mg/kg) was 266 ng/mL and the Tmax ([4]; male, SD, plasma, PO 10 mg/kg, read-out: Tmax) was 3 h. The half-life ([4]; male, SD, plasma, PO 10 mg/kg) was 5.69 h.

For `CNCC[C@H](Oc1cccc2ccccc12)c1cccs1` [Duloxetine (S configuration), Duloxetine], the IC50 [1] was 4.36 µM, the “number of appearance of writhing reaction” value ([2]; 10 mg/kg by gavage) was 27 times and the “number of appearance of writhing reaction” value ([2]; 20 mg/kg by gavage) was 21 times. For the same molecule, the “Licking time” value ([3]; 1 mg/kg intraperitoneal) was 259.97 ± 64.44 s, the “Licking time” value ([3]; 5 mg/kg intraperitoneal) was 230.49 ± 41.31 s and the “Licking time” value ([3]; 10 mg/kg intraperitoneal) was 162.83 ± 36.27 s. For the same molecule, the “Licking time” value ([3]; 20 mg/kg intraperitoneal) was 72.27 ± 17.29 s, the ED50 ([3]; Mus musculus, ip, intraperitoneal, phase II (10-60 min), dose that decreased licking time by half) was 8 mg/kg and the “Tmax” value ([4]; PO 10 mg/kg, 10 mg/kg) was 0.833 h. The bioavailability ([4]; male, SD, plasma, 10 mg/kg) was 9.9%, the AUC(0-inf) ([4]; male, SD, plasma, IV 2 mg/kg) was 449 ng·h/mL and the Cmax ([4]; male, SD, plasma, IV 2 mg/kg) was 177 ng/mL. The half-life ([4]; male, SD, plasma, IV 2 mg/kg) was 1.77 h, the AUC(0-inf) ([4]; male, SD, plasma, PO 10 mg/kg) was 222 ng·h/mL and the Cmax ([4]; male, SD, plasma, PO 10 mg/kg) was 76 ng/mL. It also gave a half-life ([4]; male, SD, plasma, PO 10 mg/kg) of 1.81 h, a Tmax ([4]; male, SD, plasma, iv, 2 mg/kg, IV 2 mg/kg, read-out: Tmax) of 0.083 h and a Tmax ([4]; male, SD, plasma, po, 10 mg/kg, PO 10 mg/kg, read-out: Tmax) of 0.83 h.
